Measurements published in ChEMBL document CHEMBL1201862, “PubChem BioAssay data set” (2004).
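In this assay, cells in 96-well plates receive the compound at five concentrations for 48 hours. Endpoints are linearly interpolated between the surrounding concentrations. Abbreviation: GI50, concentration required for 50% inhibition of growth.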 Activity calls are given as the source filed them. Cut-off read from the data, not from the text of the source: active = GI50 up to about 1.1 µM and inactive = higher.

How the values were obtained:
Assay in all cases: NCI-60 cell line screen, 48 h
786-0 = test system: 786-0
CAKI-1 = test system: CAKI-1
HCT-116 = test system: HCT-116
HOP-18 = test system: HOP-18
HOP-62 = test system: HOP-62
K562 = test system: K562
KM12 = test system: KM12
LOX IMVI = test system: LOX IMVI
LXFL 529 = test system: LXFL 529
M14 = test system: M14
OVCAR-4 = test system: OVCAR-4
SF-295 = test system: SF-295
SK-OV-3 = test system: SK-OV-3
SN12C = test system: SN12C
SNB-19 = test system: SNB-19
SR = test system: SR
UACC-257 = test system: UACC-257
A498 = test system: A498

Measured: GI50

CCCCCC(=O)C(C)C1=Nc2nnc(CCCCCCCc3nnc4n3C(=O)C(C(C)C(=O)CCCCC)=N4)n2C1=O (stereo not given)
inactive: 786-0 > 100 µM | CAKI-1 > 100 µM | HCT-116 > 100 µM | HOP-18 > 100 µM | HOP-62 > 100 µM | K562 > 100 µM | KM12 > 100 µM | LOX IMVI > 100 µM | LXFL 529 > 100 µM | M14 > 100 µM | OVCAR-4 > 100 µM | SF-295 > 100 µM | SK-OV-3 > 100 µM | SN12C > 100 µM | SNB-19 > 100 µM | SR > 100 µM | UACC-257 > 100 µM

CCCN(CCC)C(=O)c1c([N+](=O)[O-])cc(C(F)(F)F)cc1[N+](=O)[O-]
inactive: 786-0 68.2 µM | A498 75.7 µM | CAKI-1 60.7 µM | HCT-116 30.5 µM | HOP-62 > 100 µM | K562 28.3 µM | KM12 46.1 µM | LOX IMVI 35.7 µM | LXFL 529 30.4 µM | M14 22.5 µM | OVCAR-4 14.9 µM | SF-295 34.4 µM | SK-OV-3 > 100 µM | SN12C 40.9 µM | SNB-19 68.4 µM | SR 51.3 µM | UACC-257 > 10 µM

O=C(c1cccc2ccccc12)N1CCC(C2CCN(C(=O)c3cccc4ccccc34)CC2)CC1
inactive: 786-0 > 100 µM | A498 > 100 µM | CAKI-1 > 100 µM | HCT-116 > 100 µM | HOP-18 > 100 µM | HOP-62 > 100 µM | K562 > 100 µM | KM12 > 100 µM | LOX IMVI > 100 µM | LXFL 529 > 100 µM | M14 > 100 µM | SF-295 > 100 µM | SK-OV-3 > 100 µM | SN12C > 100 µM | SR > 100 µM | UACC-257 > 100 µM

COC(=O)CC(=O)OC
inactive: 786-0 > 100 µM | A498 > 100 µM | CAKI-1 > 100 µM | HCT-116 > 100 µM | HOP-18 > 100 µM | HOP-62 > 100 µM | K562 > 100 µM | KM12 > 100 µM | LOX IMVI > 100 µM | LXFL 529 > 100 µM | M14 > 100 µM | OVCAR-4 > 100 µM | SF-295 > 100 µM | SK-OV-3 > 100 µM | SN12C > 100 µM | SNB-19 > 100 µM | UACC-257 > 100 µM

CN(C)C(=S)/N=c1\ss/c(=N\C(=S)N(C)C)n1Cc1ccco1
inactive: 786-0 > 100 µM | A498 > 100 µM | CAKI-1 > 100 µM | HCT-116 > 100 µM | HOP-18 > 100 µM | HOP-62 > 100 µM | K562 > 100 µM | KM12 > 100 µM | LXFL 529 > 100 µM | M14 > 100 µM | OVCAR-4 > 100 µM | SK-OV-3 > 100 µM | SN12C > 100 µM | SNB-19 > 100 µM | SR > 100 µM | UACC-257 > 100 µM

Clc1ccc(SCCCCCCCCCCSc2ccc(Cl)cc2)cc1
inactive: 786-0 > 55.6 µM | A498 > 73.8 µM | CAKI-1 > 100 µM | HCT-116 > 100 µM | HOP-18 > 100 µM | HOP-62 > 76.2 µM | K562 > 91.2 µM | KM12 > 55.1 µM | LOX IMVI > 100 µM | LXFL 529 > 100 µM | M14 > 100 µM | OVCAR-4 > 100 µM | SF-295 > 57.9 µM | SK-OV-3 > 100 µM | SN12C > 100 µM | SNB-19 > 100 µM | UACC-257 > 57 µM

CC(=O)Nc1ccc(-c2nnc(SCC(=O)Nc3cccc(Cl)c3)o2)cc1
inactive: 786-0 6.49 µM | A498 16.3 µM | CAKI-1 19.1 µM | HCT-116 12.9 µM | HOP-18 12.6 µM | HOP-62 19.7 µM | K562 14.4 µM | KM12 16 µM | LOX IMVI 10.3 µM | LXFL 529 10.9 µM | M14 11.8 µM | OVCAR-4 17.9 µM | SF-295 18.8 µM | SK-OV-3 38 µM | SN12C 16 µM | SNB-19 22 µM | UACC-257 17.3 µM

CC(=O)N1CCN(C=S)CC1
inactive: 786-0 > 100 µM | A498 > 100 µM | CAKI-1 > 100 µM | HCT-116 > 100 µM | HOP-62 > 100 µM | K562 > 100 µM | KM12 > 100 µM | LOX IMVI > 100 µM | LXFL 529 > 100 µM | M14 > 100 µM | OVCAR-4 > 100 µM | SF-295 > 100 µM | SK-OV-3 > 100 µM | SN12C > 100 µM | SNB-19 > 100 µM | SR > 100 µM | UACC-257 > 100 µM

CC(=O)NNc1nc(C)c(C(=O)NNC(=O)C(=O)Nc2c(C)cccc2C)s1
inactive: 786-0 50.8 µM | A498 > 100 µM | CAKI-1 65.6 µM | HCT-116 40.9 µM | HOP-18 29.2 µM | HOP-62 > 100 µM | K562 34 µM | KM12 35.1 µM | LOX IMVI 18.3 µM | LXFL 529 41.8 µM | M14 54.1 µM | OVCAR-4 41.1 µM | SF-295 40.6 µM | SK-OV-3 > 100 µM | SN12C > 100 µM | SNB-19 61 µM | UACC-257 36.1 µM

CCOC(=O)c1[nH]c2c(OC)n[n+]([O-])cc2c1[N+](=O)[O-]
inactive: 786-0 16.4 µM | A498 21.8 µM | HCT-116 19 µM | HOP-18 20.5 µM | HOP-62 56.8 µM | K562 14.4 µM | KM12 15 µM | LOX IMVI 16.4 µM | LXFL 529 17.3 µM | M14 19.9 µM | OVCAR-4 19.8 µM | SF-295 37.2 µM | SK-OV-3 > 100 µM | SN12C 20.4 µM | SNB-19 25.6 µM | UACC-257 19 µM

O=C1[C@@H]2C(c3cccc([N+](=O)[O-])c3)=NO[C@@H]2C(=O)N1c1ccc(Cc2ccc(N3C(=O)[C@H]4C(c5cccc([N+](=O)[O-])c5)=NO[C@H]4C3=O)cc2)cc1
inactive: 786-0 91 µM | CAKI-1 > 100 µM | HCT-116 > 100 µM | HOP-18 > 100 µM | HOP-62 > 100 µM | K562 > 100 µM | KM12 > 10 µM | LOX IMVI > 10 µM | LXFL 529 > 100 µM | M14 > 100 µM | OVCAR-4 > 100 µM | SK-OV-3 > 10 µM | SN12C > 100 µM | SR > 100 µM | UACC-257 > 100 µM

Cc1cc(O)cc2c1O[C@@]1(C)CCC3[C@@]4(C)CC[C@H](O)C(C)(C)C4CC[C@@]3(C)[C@H]1C2 (stereo not given in full)
inactive: 786-0 2.32 µM | A498 19.6 µM | CAKI-1 6.81 µM | HCT-116 4.31 µM | HOP-18 14.7 µM | K562 2.47 µM | KM12 4.31 µM | LOX IMVI 6.07 µM | LXFL 529 2.85 µM | M14 11.3 µM | SF-295 2.35 µM | SK-OV-3 3.4 µM | SN12C 11.6 µM | UACC-257 12.9 µM

Cc1ccc(S(=O)(=O)N/N=C2\CCCCC23CCC(=O)NC3)cc1 (stereo not given)
inactive: 786-0 > 100 µM | A498 > 100 µM | CAKI-1 > 100 µM | HCT-116 > 100 µM | HOP-18 > 100 µM | HOP-62 > 100 µM | K562 > 100 µM | KM12 > 100 µM | LXFL 529 > 100 µM | M14 > 100 µM | OVCAR-4 > 100 µM | SK-OV-3 > 100 µM | SN12C > 100 µM | SNB-19 > 100 µM | SR > 100 µM | UACC-257 > 100 µM

CC(NS(=O)(=O)c1ccc([N+](=O)[O-])cc1)C(=O)O (stereo not given)
inactive: 786-0 > 100 µM | A498 > 100 µM | CAKI-1 > 100 µM | HOP-18 > 100 µM | K562 > 100 µM | KM12 > 100 µM | LOX IMVI > 100 µM | LXFL 529 > 100 µM | M14 > 100 µM | OVCAR-4 > 100 µM | SF-295 > 100 µM | SK-OV-3 > 100 µM | SN12C > 100 µM | SNB-19 > 100 µM | UACC-257 > 100 µM

CCOC(=O)c1ccc(C)c(/N=N/N(C)C)c1
inactive: 786-0 > 100 µM | A498 > 100 µM | CAKI-1 > 100 µM | HCT-116 > 100 µM | HOP-18 4.32 µM | HOP-62 > 100 µM | K562 > 100 µM | KM12 > 100 µM | LOX IMVI > 100 µM | M14 > 100 µM | OVCAR-4 > 100 µM | SF-295 > 100 µM | SK-OV-3 > 100 µM | SN12C > 100 µM | SNB-19 86.7 µM | SR 93.1 µM | UACC-257 > 100 µM

CCc1cccc(NC(=O)c2cc(/C=C/c3ccccc3)nc(S)n2)c1
inactive: 786-0 > 100 µM | A498 > 100 µM | HCT-116 > 100 µM | HOP-18 > 100 µM | HOP-62 > 100 µM | K562 > 100 µM | KM12 > 100 µM | LXFL 529 > 100 µM | M14 > 100 µM | OVCAR-4 > 100 µM | SF-295 > 100 µM | SK-OV-3 > 100 µM | SN12C > 100 µM | SNB-19 > 100 µM | SR > 100 µM | UACC-257 > 100 µM
